Laboratory results reported in the kinase profiling compilation of Christmann-Franck et al. (2016).
Each block holds one compound with its values, some of them ahead of it.

Columns and labels:
Assay in all cases: radiometric filter-binding kinase assay, Kinase HotSpot
Conditions in all cases: compound 0.5 µM; ATP 10 µM
TAOK2 (human) = TAOK2 (human) (UniProt Q9UL54)
STK25 (human) = STK25 (human) (UniProt O00506)
CDK7 CCNH MNAT1 (human) = CDK7 CCNH MNAT1 (human) (UniProt P50613+P51948+P51946)
AKT3 (human) = AKT3 (human) (UniProt Q9Y243)
STK16 (human) = STK16 (human) (UniProt O75716)
PRKACA (human) = PRKACA (human) (UniProt P17612)
LRRK2 (human) = LRRK2 (human) (UniProt Q5S007)
TAOK1 (human) = TAOK1 (human) (UniProt Q7L7X3)
PAK3 (human) = PAK3 (human) (UniProt O75914)
MYLK2 (human) = MYLK2 (human) (UniProt Q9H1R3)
DYRK1A (human) = DYRK1A (human) (UniProt Q13627)
LIMK1 (human) = LIMK1 (human) (UniProt P53667)
MAP4K5 (human) = MAP4K5 (human) (UniProt Q9Y4K4)
NTRK2 (human) = NTRK2 (human) (UniProt Q16620)
MAP3K8 (human) = MAP3K8 (human) (UniProt P41279)
MKNK2 (human) = MKNK2 (human) (UniProt Q9HBH9)
DAPK3 (human) = DAPK3 (human) (UniProt O43293)
CAMK2G (human) = CAMK2G (human) (UniProt Q13555)
MLTK (human) = MLTK (human) (UniProt Q9NYL2)
DDR2 (human) = DDR2 (human) (UniProt Q16832)
CSNK1G1 (human) = CSNK1G1 (human) (UniProt Q9HCP0)
NUAK1 (human) = NUAK1 (human) (UniProt O60285)
CAMK2B (human) = CAMK2B (human) (UniProt Q13554)
IKBKB (human) = IKBKB (human) (UniProt O14920)
PRKX (human) = PRKX (human) (UniProt P51817)
MARK2 (human) = MARK2 (human) (UniProt Q7KZI7)
RPS6KA4 KD2 (human) = RPS6KA4 KD2 (human) (UniProt O75676)
MAP3K3 (human) = MAP3K3 (human) (UniProt Q99759)
SGK2 (human) = SGK2 (human) (UniProt Q9HBY8)
EPHA1 (human) = EPHA1 (human) (UniProt P21709)
CLK4 (human) = CLK4 (human) (UniProt Q9HAZ1)
GRK6 (human) = GRK6 (human) (UniProt P43250)
STK33 (human) = STK33 (human) (UniProt Q9BYT3)
ADRBK2 (human) = ADRBK2 (human) (UniProt P35626)
PRKCH (human) = PRKCH (human) (UniProt P24723)
MAPK14 (human) = MAPK14 (human) (UniProt Q16539)
MAP3K14 (human) = MAP3K14 (human) (UniProt Q99558)
INSRR (human) = INSRR (human) (UniProt P14616)
TAOK3 (human) = TAOK3 (human) (UniProt Q9H2K8)
NUAK2 (human) = NUAK2 (human) (UniProt Q9H093)
SRPK3 (human) = SRPK3 (human) (UniProt Q9UPE1)
PRKD1 (human) = PRKD1 (human) (UniProt Q15139)

Chain of EPHA1 (human) (P21709 whole entry, looked up): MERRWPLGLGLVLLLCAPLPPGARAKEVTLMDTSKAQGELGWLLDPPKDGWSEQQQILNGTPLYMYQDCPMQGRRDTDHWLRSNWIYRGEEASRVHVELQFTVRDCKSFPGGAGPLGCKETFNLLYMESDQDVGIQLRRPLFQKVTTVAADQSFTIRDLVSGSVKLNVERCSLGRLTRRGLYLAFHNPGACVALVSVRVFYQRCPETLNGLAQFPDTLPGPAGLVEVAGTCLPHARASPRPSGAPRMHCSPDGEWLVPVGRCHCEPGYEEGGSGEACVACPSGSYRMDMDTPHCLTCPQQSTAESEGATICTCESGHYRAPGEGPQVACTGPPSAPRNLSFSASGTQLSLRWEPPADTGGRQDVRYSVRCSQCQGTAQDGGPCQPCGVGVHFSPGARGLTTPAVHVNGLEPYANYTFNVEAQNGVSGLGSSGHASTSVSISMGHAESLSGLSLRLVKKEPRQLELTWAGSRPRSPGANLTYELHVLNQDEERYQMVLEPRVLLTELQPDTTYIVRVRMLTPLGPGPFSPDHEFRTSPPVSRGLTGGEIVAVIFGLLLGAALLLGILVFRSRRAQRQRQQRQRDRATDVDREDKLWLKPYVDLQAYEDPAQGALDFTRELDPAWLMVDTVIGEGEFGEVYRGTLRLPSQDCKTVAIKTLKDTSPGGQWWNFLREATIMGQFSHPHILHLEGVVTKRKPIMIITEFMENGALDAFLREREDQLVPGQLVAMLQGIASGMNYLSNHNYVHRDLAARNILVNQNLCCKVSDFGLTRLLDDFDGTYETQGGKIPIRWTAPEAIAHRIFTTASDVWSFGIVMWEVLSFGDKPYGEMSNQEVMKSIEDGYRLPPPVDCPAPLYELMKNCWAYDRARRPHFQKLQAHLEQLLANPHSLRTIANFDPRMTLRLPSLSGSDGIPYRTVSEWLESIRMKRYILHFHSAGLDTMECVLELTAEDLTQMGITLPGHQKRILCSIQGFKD
Chain of MAPK14 (human) (Q16539 whole entry, looked up): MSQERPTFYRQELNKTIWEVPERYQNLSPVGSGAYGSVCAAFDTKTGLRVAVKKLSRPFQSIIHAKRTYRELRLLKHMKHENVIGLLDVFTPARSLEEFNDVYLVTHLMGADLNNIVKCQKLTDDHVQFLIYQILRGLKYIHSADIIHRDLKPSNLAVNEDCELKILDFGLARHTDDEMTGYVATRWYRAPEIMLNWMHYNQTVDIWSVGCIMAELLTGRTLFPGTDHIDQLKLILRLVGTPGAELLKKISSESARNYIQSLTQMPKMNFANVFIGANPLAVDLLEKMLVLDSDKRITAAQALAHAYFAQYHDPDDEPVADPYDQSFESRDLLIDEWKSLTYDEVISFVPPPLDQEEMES
Chain of INSRR (human) (P14616 whole entry, looked up): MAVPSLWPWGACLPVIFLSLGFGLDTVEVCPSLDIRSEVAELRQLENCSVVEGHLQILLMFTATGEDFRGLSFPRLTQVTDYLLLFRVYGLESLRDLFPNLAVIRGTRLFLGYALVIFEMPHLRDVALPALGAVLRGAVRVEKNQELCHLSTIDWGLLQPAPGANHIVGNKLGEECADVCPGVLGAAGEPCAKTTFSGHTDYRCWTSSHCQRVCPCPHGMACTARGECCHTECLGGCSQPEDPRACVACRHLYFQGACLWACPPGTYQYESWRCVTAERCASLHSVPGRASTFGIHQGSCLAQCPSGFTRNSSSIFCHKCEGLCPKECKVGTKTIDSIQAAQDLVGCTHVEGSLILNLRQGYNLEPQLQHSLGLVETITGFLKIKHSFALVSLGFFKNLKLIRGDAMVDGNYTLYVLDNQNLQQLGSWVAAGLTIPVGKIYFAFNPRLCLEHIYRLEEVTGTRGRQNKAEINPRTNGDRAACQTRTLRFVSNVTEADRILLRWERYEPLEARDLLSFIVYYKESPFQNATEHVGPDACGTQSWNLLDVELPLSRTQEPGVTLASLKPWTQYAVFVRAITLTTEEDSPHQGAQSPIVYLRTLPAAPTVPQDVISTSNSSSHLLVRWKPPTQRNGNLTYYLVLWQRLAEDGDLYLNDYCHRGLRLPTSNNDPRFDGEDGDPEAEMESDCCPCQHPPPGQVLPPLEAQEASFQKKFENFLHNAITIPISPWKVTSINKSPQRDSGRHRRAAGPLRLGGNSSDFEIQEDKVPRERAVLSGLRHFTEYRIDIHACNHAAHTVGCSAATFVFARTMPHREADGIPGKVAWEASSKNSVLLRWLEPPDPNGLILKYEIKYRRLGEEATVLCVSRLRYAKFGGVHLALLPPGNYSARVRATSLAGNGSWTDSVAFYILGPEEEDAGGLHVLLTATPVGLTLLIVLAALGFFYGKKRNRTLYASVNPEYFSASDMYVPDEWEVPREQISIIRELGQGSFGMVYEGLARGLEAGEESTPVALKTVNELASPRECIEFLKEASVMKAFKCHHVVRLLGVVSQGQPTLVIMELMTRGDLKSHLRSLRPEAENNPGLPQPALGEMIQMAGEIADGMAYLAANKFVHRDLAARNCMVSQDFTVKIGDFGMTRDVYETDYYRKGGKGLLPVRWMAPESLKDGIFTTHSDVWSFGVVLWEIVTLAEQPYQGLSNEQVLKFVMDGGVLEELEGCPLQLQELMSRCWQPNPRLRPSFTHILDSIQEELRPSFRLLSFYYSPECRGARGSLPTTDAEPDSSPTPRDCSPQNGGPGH
Chain of TAOK3 (human) (Q9H2K8 whole entry, looked up): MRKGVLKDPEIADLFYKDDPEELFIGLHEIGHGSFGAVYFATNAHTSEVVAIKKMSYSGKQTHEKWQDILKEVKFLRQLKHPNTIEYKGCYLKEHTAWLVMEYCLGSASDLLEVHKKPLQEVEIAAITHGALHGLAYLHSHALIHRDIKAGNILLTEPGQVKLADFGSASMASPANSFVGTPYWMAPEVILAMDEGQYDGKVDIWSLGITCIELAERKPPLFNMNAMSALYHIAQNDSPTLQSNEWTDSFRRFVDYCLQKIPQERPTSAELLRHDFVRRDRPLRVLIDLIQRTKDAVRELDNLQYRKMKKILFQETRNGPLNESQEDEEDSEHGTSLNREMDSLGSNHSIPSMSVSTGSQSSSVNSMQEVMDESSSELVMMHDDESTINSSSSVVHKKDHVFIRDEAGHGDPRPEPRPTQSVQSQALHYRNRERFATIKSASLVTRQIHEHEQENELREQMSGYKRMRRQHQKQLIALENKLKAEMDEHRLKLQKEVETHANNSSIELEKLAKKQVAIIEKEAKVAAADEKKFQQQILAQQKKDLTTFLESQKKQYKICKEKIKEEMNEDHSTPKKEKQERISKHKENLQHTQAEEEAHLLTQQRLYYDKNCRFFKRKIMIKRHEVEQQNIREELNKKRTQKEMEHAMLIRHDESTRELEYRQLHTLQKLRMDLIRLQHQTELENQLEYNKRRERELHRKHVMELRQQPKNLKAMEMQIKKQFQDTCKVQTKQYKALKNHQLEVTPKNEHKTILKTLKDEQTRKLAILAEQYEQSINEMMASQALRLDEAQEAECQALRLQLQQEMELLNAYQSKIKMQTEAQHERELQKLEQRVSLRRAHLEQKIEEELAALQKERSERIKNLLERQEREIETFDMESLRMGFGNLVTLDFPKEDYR
Chain of MYLK2 (human) (Q9H1R3 whole entry, looked up): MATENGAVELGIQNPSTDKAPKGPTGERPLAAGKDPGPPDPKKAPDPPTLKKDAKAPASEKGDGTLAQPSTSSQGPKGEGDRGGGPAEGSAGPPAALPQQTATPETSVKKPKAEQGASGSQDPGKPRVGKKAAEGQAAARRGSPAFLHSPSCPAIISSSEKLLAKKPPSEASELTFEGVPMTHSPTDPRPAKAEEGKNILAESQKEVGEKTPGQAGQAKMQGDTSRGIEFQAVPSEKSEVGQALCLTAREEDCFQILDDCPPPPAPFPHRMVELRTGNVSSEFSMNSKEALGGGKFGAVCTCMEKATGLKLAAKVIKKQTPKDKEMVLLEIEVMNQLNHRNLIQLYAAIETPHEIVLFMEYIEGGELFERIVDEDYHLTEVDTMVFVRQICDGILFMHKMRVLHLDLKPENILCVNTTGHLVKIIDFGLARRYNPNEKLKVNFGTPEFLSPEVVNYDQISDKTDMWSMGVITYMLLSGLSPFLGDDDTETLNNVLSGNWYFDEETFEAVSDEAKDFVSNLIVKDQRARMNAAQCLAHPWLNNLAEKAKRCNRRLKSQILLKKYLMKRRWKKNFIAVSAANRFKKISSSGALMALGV
Chain of NUAK2 (human) (Q9H093 whole entry, looked up): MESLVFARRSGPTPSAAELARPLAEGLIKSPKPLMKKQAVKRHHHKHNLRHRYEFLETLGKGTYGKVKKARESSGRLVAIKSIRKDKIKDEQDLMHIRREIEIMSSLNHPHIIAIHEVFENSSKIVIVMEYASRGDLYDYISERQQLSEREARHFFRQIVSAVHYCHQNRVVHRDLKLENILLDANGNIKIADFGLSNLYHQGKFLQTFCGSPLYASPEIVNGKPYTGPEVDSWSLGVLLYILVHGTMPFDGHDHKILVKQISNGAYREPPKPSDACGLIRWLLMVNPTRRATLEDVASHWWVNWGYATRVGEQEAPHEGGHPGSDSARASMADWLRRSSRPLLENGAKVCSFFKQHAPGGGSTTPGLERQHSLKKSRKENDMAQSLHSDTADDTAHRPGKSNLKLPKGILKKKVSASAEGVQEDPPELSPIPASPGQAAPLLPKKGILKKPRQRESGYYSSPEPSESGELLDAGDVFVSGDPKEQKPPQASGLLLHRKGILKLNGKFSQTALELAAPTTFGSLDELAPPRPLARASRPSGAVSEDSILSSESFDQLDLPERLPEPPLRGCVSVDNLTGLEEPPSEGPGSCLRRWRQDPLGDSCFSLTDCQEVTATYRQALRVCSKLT
Chain of STK16 (human) (O75716 whole entry, looked up): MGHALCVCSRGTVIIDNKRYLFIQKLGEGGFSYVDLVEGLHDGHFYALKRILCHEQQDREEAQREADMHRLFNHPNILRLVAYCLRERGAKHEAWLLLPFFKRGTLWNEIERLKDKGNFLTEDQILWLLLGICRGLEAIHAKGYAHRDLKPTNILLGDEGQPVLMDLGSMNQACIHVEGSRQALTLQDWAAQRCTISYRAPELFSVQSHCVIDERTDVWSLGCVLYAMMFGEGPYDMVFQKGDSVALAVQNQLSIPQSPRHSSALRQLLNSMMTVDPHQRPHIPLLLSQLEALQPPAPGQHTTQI

SMILES: COc1cc2ncnc(N3CCN(C(=O)Nc4ccc(Oc5ccccc5)cc4)CC3)c2cc1OC
residual activity (TAOK2 (human)): 96.3%
residual activity (STK25 (human)): 100%
residual activity (CDK7 CCNH MNAT1 (human)): 103%
residual activity (AKT3 (human)): 97.5%
residual activity (STK16 (human)): 94.2%
residual activity (PRKACA (human)): 96%
residual activity (LRRK2 (human)): 98.3%
residual activity (TAOK1 (human)): 81.6%
residual activity (PAK3 (human)): 98.1%
residual activity (MYLK2 (human)): 94.6%
residual activity (DYRK1A (human)): 97.9%
residual activity (LIMK1 (human)): 69.8%
residual activity (MAP4K5 (human)): 81.6%
residual activity (NTRK2 (human)): 121%
residual activity (MAP3K8 (human)): 95.1%
residual activity (MKNK2 (human)): 94.2%
residual activity (DAPK3 (human)): 101%
residual activity (CAMK2G (human)): 100%
residual activity (MLTK (human)): 96.2%
residual activity (DDR2 (human)): 95.1%
residual activity (CSNK1G1 (human)): 81.6%
residual activity (NUAK1 (human)): 88.8%
residual activity (CAMK2B (human)): 96.3%
residual activity (IKBKB (human)): 102%
residual activity (PRKX (human)): 99.3%
residual activity (MARK2 (human)): 97.4%
residual activity (RPS6KA4 KD2 (human)): 96.2%
residual activity (MAP3K3 (human)): 83.7%
residual activity (SGK2 (human)): 96.7%
residual activity (EPHA1 (human)): 102%
residual activity (CLK4 (human)): 65.6%
residual activity (GRK6 (human)): 96.4%
residual activity (STK33 (human)): 94.7%
residual activity (ADRBK2 (human)): 106%
residual activity (PRKCH (human)): 86.1%
residual activity (MAPK14 (human)): 81%
residual activity (MAP3K14 (human)): 105%
residual activity (INSRR (human)): 96.8%
residual activity (TAOK3 (human)): 95.3%
residual activity (NUAK2 (human)): 77.4%
residual activity (SRPK3 (human)): 97.3%
residual activity (PRKD1 (human)): 102%

residual activity (TAOK2 (human)): 83.4%
residual activity (STK25 (human)): 74%
residual activity (CDK7 CCNH MNAT1 (human)): 77.9%
residual activity (AKT3 (human)): 92.9%
residual activity (STK16 (human)): 12.7%
residual activity (PRKACA (human)): 89.1%
residual activity (LRRK2 (human)): 81.2%
residual activity (TAOK1 (human)): 98.2%
residual activity (PAK3 (human)): 73.8%
residual activity (MYLK2 (human)): 27.3%
residual activity (DYRK1A (human)): 82.8%
residual activity (LIMK1 (human)): 39.5%
residual activity (MAP4K5 (human)): 15.5%
residual activity (NTRK2 (human)): 1.62%
residual activity (MAP3K8 (human)): 123%
residual activity (MKNK2 (human)): 72.4%
residual activity (DAPK3 (human)): 66.6%
residual activity (CAMK2G (human)): 35.3%
residual activity (MLTK (human)): 76.4%
residual activity (DDR2 (human)): 86.1%
residual activity (CSNK1G1 (human)): 89.2%
residual activity (NUAK1 (human)): 2.81%
residual activity (CAMK2B (human)): 57.9%
residual activity (IKBKB (human)): 90.5%
residual activity (PRKX (human)): 84.2%
residual activity (MARK2 (human)): 57.4%
residual activity (RPS6KA4 KD2 (human)): 21.7%
residual activity (MAP3K3 (human)): 87.8%
residual activity (SGK2 (human)): 75.8%
residual activity (EPHA1 (human)): 82.2%
residual activity (CLK4 (human)): 6.19%
residual activity (GRK6 (human)): 53.1%
residual activity (STK33 (human)): 22.3%
residual activity (ADRBK2 (human)): 100%
residual activity (PRKCH (human)): 82.2%
residual activity (MAPK14 (human)): 101%
residual activity (MAP3K14 (human)): 89%
residual activity (INSRR (human)): 2.77%
residual activity (TAOK3 (human)): 55.4%
residual activity (NUAK2 (human)): 55.1%
residual activity (SRPK3 (human)): 59.5%
residual activity (PRKD1 (human)): 72.7%
SMILES: O=C1Nc2ccccc2/C1=C1/Nc2ccccc2/C1=N\OCCC(O)CO (stereo not drawn)

SMILES: Oc1ccc(Nc2nc(-c3ccc(Cl)cc3)cs2)cc1
residual activity (TAOK2 (human)): 101%
residual activity (STK25 (human)): 113%
residual activity (CDK7 CCNH MNAT1 (human)): 96.3%
residual activity (AKT3 (human)): 105%
residual activity (STK16 (human)): 106%
residual activity (PRKACA (human)): 105%
residual activity (LRRK2 (human)): 98.7%
residual activity (TAOK1 (human)): 97.1%
residual activity (PAK3 (human)): 124%
residual activity (MYLK2 (human)): 97.1%
residual activity (DYRK1A (human)): 96.6%
residual activity (LIMK1 (human)): 90.5%
residual activity (MAP4K5 (human)): 110%
residual activity (NTRK2 (human)): 107%
residual activity (MAP3K8 (human)): 94.9%
residual activity (MKNK2 (human)): 84.5%
residual activity (DAPK3 (human)): 103%
residual activity (CAMK2G (human)): 90.6%
residual activity (MLTK (human)): 92.7%
residual activity (DDR2 (human)): 94.1%
residual activity (CSNK1G1 (human)): 94.5%
residual activity (NUAK1 (human)): 90.7%
residual activity (CAMK2B (human)): 85.8%
residual activity (IKBKB (human)): 104%
residual activity (PRKX (human)): 99.6%
residual activity (MARK2 (human)): 102%
residual activity (RPS6KA4 KD2 (human)): 91.5%
residual activity (MAP3K3 (human)): 101%
residual activity (SGK2 (human)): 108%
residual activity (EPHA1 (human)): 92.6%
residual activity (CLK4 (human)): 98.8%
residual activity (GRK6 (human)): 100%
residual activity (STK33 (human)): 97.5%
residual activity (ADRBK2 (human)): 97.6%
residual activity (PRKCH (human)): 96.3%
residual activity (MAPK14 (human)): 98.6%
residual activity (MAP3K14 (human)): 102%
residual activity (INSRR (human)): 98.8%
residual activity (TAOK3 (human)): 101%
residual activity (NUAK2 (human)): 137%
residual activity (SRPK3 (human)): 98.1%
residual activity (PRKD1 (human)): 96.8%

SMILES: COc1cc2ncc(-c3ccccc3)nc2cc1OC
residual activity (TAOK2 (human)): 95.9%
residual activity (STK25 (human)): 90.7%
residual activity (CDK7 CCNH MNAT1 (human)): 109%
residual activity (AKT3 (human)): 94.5%
residual activity (STK16 (human)): 93.5%
residual activity (PRKACA (human)): 99.4%
residual activity (LRRK2 (human)): 84.9%
residual activity (TAOK1 (human)): 104%
residual activity (PAK3 (human)): 94.7%
residual activity (MYLK2 (human)): 100%
residual activity (DYRK1A (human)): 97.2%
residual activity (LIMK1 (human)): 77.7%
residual activity (MAP4K5 (human)): 99.8%
residual activity (NTRK2 (human)): 99.5%
residual activity (MAP3K8 (human)): 108%
residual activity (MKNK2 (human)): 86.3%
residual activity (DAPK3 (human)): 84.7%
residual activity (CAMK2G (human)): 94.5%
residual activity (MLTK (human)): 94.7%
residual activity (DDR2 (human)): 96.9%
residual activity (CSNK1G1 (human)): 90.1%
residual activity (NUAK1 (human)): 85.6%
residual activity (CAMK2B (human)): 93.3%
residual activity (IKBKB (human)): 101%
residual activity (PRKX (human)): 97.4%
residual activity (MARK2 (human)): 112%
residual activity (RPS6KA4 KD2 (human)): 85.4%
residual activity (MAP3K3 (human)): 90.3%
residual activity (SGK2 (human)): 95.6%
residual activity (EPHA1 (human)): 95.8%
residual activity (CLK4 (human)): 102%
residual activity (GRK6 (human)): 92.8%
residual activity (STK33 (human)): 91.7%
residual activity (ADRBK2 (human)): 94.3%
residual activity (PRKCH (human)): 107%
residual activity (MAPK14 (human)): 122%
residual activity (MAP3K14 (human)): 115%
residual activity (INSRR (human)): 99.2%
residual activity (TAOK3 (human)): 88.9%
residual activity (NUAK2 (human)): 133%
residual activity (SRPK3 (human)): 91.1%
residual activity (PRKD1 (human)): 93.3%
